# Experimental data: article PMC3093256, “Synthesis of 1-Substituted Carbazolyl-1,2,3,4-tetrahydro- and Carbazolyl-3,4-dihydro-β-carboline Analogs as Potential Antitumor Agents” (Marine Drugs, 2011)
# How the values were obtained:
# human tumor cell lines = experiment: Cytotoxicity assay, tumor cell panel (cell line not specified); assay type: cell-based; details: positive control
# Method: The cytotoxic activities of compounds against KB (human mouth epidermoid carcinoma), DLD (human colon adenocarcinoma), NCI-H661 (human lung large cell carcinoma), Hepa (human hepatoma), and HepG2/A2 (human hepatoblastoma) cells were assayed by the MTT{3-(4,5-dimethylthiazole-2-yl)-2,5-diphenyltetrazolium bromide} colorimetric assay as previously described. The cells for assay were cultured in RPMI-1640 medium supplemented with […] in an incubator at 37 °C. The cytotoxicity assay depends on the binding of methylene blue to fixed monolayers of cells at pH 8.5, washing the monolayer, and releasing the dye by lowering the pH value. Samples and control standard drugs were prepared at a concentration of 1, 10, 40, and 100 μg/mL. After seeding 2880 cells/well in a 96-well microplate for 3 h, 20 μL of sample or standard agent was placed in each well and incubated at 37 °C for 3 days. After removing the medium from the microplates, the cells were fixed with 10% formaldehyde in 0.9% saline for 30 min, then dyed with 1% (w/v) methylene blue in 0.01 M borate-buffer (100 μL/well) for 30 min. The 96-well plate was dipped into a 0.01 M borate-buffer solution four times in order to remove the dye. Then, 100 μL/well of EtOH-0.1 M HCl (1:1) was added as a dye eluting solvent, and the absorbance was measured on a microtiter plate reader (Dynatech, MR 7000) at a wavelength of 650 nm. […]
# [1] = target: T1, human DNA topoisomerase I (Homo sapiens, UniProt P11387); experiment: Relaxation assay of topoisomerase I (supercoiled pBR322); assay type: biochemical; details: five concentrations 5, 10, 25, 50 and 100 μg/mL; read-out: Inhibition of DNA topoisomerase I IC50 (converted)
# T1 construct: purchased TopoGen
# T1 sequence (P11387 1-765): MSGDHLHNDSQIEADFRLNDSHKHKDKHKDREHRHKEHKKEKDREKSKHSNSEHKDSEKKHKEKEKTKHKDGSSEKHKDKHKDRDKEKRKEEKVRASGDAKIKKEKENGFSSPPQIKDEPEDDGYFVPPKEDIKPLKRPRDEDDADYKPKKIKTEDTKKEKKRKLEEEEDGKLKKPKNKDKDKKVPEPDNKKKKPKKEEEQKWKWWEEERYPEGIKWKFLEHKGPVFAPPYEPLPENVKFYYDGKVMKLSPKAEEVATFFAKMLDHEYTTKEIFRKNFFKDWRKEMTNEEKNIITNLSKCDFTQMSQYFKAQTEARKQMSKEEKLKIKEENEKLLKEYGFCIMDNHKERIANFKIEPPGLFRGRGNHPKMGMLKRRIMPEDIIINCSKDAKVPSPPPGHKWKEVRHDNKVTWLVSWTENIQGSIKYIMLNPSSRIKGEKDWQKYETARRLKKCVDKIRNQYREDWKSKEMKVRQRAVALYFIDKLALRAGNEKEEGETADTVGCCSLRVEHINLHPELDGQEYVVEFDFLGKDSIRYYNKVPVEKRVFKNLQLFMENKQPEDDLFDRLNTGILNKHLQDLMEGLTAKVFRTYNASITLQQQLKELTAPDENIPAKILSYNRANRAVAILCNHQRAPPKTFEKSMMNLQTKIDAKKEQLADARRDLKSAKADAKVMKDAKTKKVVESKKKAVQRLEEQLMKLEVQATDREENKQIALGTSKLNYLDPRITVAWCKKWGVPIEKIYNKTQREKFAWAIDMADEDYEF
# Method: (§1) Topoisomerases I and II (topo I and II) assays were measured by assessing relaxation of supercoiled pBR322 plasmid DNA according to [24]. […] In summary, topo I (TopoGen) was mixed with the test sample and 10° volume of assay buffer (100 mM Tris-HCl, 10 mM EDTA, 1.5 M NACl, 1.0% BSA, […], and 50% glycerol), and then supercoiled DNA (pBR322) was added. In topo II assay, the mixture contained test sample and buffer including 50 mM Tris-HCl, 120 mM KCl, 10 mM MgCl2, 0.5 mM ATP, 0.5 mM dithiothreitol, 2 μg BSA, pBR322 plasmid DNA (0.25 μg), and 3U of topo II (TopoGen) in final volume of 20 μL. After incubation of topo I or topo II mixture for 30 min at 37 °C, 2 λ 10% SDS and 2.5 λ proteinase K were added for 1 h. The reaction mixtures were electrophoresed on a 2% agarose gel (50 V, 20 min; 100 V, 30 min; 110 V, 30 min) and stained with ethidium bromide. Finally, by a densitometer of ImageMaster® (Fujifilm thermal imaging system, FTI-500), the gels were directly scanned and the area representing supercoiled DNA was calculated.
# [2] = test system: KB (human mouth epidermoid carcinoma); experiment: Cytotoxicity assay, KB cells; assay type: cell-based; details: 72 h, 3 days incubation, by interpolation
# Method: (§2) The cytotoxic activities of compounds against KB (human mouth epidermoid carcinoma), DLD (human colon adenocarcinoma), NCI-H661 (human lung large cell carcinoma), Hepa (human hepatoma), and HepG2/A2 (human hepatoblastoma) cells were assayed by the […] assay as previously described. The cells for assay were cultured in RPMI-1640 medium supplemented with […] in an incubator at 37 °C. The cytotoxicity assay depends on the binding of methylene blue to fixed monolayers of cells at pH 8.5, washing the monolayer, and releasing the dye by lowering the pH value. Samples and control standard drugs were prepared at a concentration of 1, 10, 40, and 100 μg/mL. After seeding 2880 cells/well in a 96-well microplate for 3 h, 20 μL of sample or standard agent was placed in each well and incubated at 37 °C for 3 days. After removing the medium from the microplates, the cells were fixed with 10% formaldehyde in 0.9% saline for 30 min, then dyed with 1% (w/v) methylene blue in 0.01 M borate-buffer (100 μL/well) for 30 min. The 96-well plate was dipped into a 0.01 M borate-buffer solution four times in order to remove the dye. Then, 100 μL/well of EtOH-0.1 M HCl (1:1) was added as a dye eluting solvent, and the absorbance was measured on a microtiter plate reader (Dynatech, MR 7000) at a wavelength of 650 nm. […] Doxorubicin was used as a standard compound.
# [3] = test system: DLD (human colon adenocarcinoma); experiment: Cytotoxicity assay, DLD cells; assay type: cell-based; details: Homo sapiens, 72 h, 3 days incubation, by interpolation
# Method: as §2
# [4] = test system: HepG2/A2 (human hepatoma); experiment: Cytotoxicity assay, HepG2/A2 cells; assay type: cell-based; details: Homo sapiens, 72 h; HepG2/A2 cells, 3 days incubation, by interpolation
# Method: as §2
# [5] = target: T2, human DNA topoisomerase II (Homo sapiens, UniProt P11388); experiment: Relaxation assay of topoisomerase II (supercoiled pBR322); assay type: biochemical; details: five concentrations 5, 10, 25, 50 and 100 μg/mL; read-out: Inhibition of DNA topoisomerase II IC50 (converted)
# T2 construct: purchased TopoGen
# Method: as §1
# [6] = test system: NCI-H661 (human lung large cell carcinoma); experiment: Cytotoxicity assay, NCI-H661 cells; assay type: cell-based; details: 72 h, 3 days incubation, by interpolation
# Method: as §2
# Hepa (human hepatoma) = experiment: Cytotoxicity assay, Hepa cells; assay type: cell-based; details: 72 h, 3 days incubation, by interpolation
# Method: as §2
# T2 sequence (P11388 whole entry): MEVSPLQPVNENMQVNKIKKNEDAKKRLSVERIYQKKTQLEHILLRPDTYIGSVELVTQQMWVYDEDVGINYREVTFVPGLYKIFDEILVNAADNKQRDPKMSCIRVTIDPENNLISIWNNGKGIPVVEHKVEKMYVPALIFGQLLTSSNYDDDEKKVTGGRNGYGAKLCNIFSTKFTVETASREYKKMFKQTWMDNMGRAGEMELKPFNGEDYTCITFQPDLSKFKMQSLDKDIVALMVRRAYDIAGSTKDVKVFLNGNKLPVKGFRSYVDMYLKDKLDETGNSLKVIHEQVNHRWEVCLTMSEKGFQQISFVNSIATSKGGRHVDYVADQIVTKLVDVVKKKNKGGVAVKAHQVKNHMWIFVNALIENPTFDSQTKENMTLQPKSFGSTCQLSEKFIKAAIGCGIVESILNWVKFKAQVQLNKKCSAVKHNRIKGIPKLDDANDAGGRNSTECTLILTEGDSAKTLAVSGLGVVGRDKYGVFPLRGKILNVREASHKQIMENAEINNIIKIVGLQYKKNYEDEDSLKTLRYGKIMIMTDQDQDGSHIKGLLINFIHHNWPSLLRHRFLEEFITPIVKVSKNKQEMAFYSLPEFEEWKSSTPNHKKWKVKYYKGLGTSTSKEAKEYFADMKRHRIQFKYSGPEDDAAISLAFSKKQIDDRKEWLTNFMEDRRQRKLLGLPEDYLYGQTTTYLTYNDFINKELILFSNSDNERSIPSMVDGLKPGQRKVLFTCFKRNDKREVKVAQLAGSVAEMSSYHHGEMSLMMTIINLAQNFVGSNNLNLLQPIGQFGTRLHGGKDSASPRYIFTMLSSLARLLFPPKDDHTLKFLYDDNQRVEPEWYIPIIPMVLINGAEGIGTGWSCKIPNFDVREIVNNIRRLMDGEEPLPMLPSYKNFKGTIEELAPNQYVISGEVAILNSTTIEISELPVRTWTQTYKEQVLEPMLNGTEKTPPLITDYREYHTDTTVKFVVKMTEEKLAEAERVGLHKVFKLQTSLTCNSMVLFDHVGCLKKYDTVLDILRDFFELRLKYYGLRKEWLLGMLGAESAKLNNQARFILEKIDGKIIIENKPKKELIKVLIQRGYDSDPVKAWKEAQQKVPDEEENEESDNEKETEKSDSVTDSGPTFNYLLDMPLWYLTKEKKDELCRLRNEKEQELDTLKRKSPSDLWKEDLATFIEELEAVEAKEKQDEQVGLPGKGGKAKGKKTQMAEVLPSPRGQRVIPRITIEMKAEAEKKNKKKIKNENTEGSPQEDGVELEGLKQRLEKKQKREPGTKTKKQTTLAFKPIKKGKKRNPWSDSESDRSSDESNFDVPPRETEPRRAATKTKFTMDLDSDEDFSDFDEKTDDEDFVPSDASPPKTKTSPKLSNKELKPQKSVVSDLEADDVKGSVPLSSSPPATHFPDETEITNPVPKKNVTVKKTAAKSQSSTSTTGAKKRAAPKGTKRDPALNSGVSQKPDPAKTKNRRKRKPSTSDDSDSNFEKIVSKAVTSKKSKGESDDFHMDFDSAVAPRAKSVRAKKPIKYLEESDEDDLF
IC50 [1] [µM],IC50 [5] [µM],melting point [°C],SMILES,IC50 (human tumor cell lines) [µg/mL],IC50 [2] [µg/mL],IC50 [3] [µg/mL],IC50 [4] [µg/mL],IC50 [6] [µg/mL],IC50 (Hepa (human hepatoma)) [µg/mL]
–,–,–,COc1cccc2c1C(=O)c1c(O)c3c(c(O)c1C2=O)C[C@@](O)(C(=O)CO)C[C@@H]3O[C@H]1C[C@H](N)[C@H](O)[C@H](C)O1 [Doxorubicin],0.1,–,–,–,–,–
> 178,> 178,111 to 113,"CCCCCCCCCCCCCCCCn1c2ccccc2c2cc(C3NCCc4c3[nH]c3ccccc43)ccc21 (stereo not drawn) [Compound 15, 1-(9′-Hexadecyl-3′-carbazolyl)-1,2,3,4-tetrahydro-β-carboline]",–,> 20,> 20,> 60,> 20,> 20
> 210,39.9,78 to 80,"CCCCCCCCCCn1c2ccccc2c2cc(C3=NCCc4c3[nH]c3ccccc43)ccc21 [Compound 14, 1-(9′-Decyl-3′-carbazolyl)-3,4-dihydro-β-carboline]",–,> 20,> 20,> 60,> 20,> 20
